Entries after “also recorded” stand apart in the source; their conditions may differ.
Experiments:
[1] = tested on: polymorphonuclear leukocytes adhering to human microvascular endothelial cells (HMVEC); assay: Adherence of resting PMNs to LPS-activated endothelial cells; assay type: cell-based; conditions: CMP 2.5 mM for 5 minutes prior to stimulation; LPS 100 ng/ml for 4 hrs; FIG. 5
Protocol: In contrast, when the human microvascular endothelial cells, HMVECs, are treated with lipopolysaccharide, LPS, (100 ng/ml for 4 hrs) to activate them, resting polymorphonuclear leukocytes adhere better to the HMVECs. […] When polymorphonuclear leukocytes are activated with the tetrapeptide FMLP (1×10^−7 M/cyt b for 5 min.) they adhere better than do resting polymorphonuclear leukocytes (FIG. 5). At this later stage of PMN-EC interaction, sialyltransferase doesn't play a role. It is contemplated that CMP appears to work by inhibiting the initial binding of non-activated polymorphonuclear leukocytes to the ECs and also works at the late stage where polymorphonuclear leukocytes that have migrated through the EC monolayer are unable to move further to the inflammatory nidus.

[2] = tested on: polymorphonuclear leukocytes; assay: Preliminary tests of CMP toxicity to PMNs; assay type: cell-based, human; conditions: 0.3 mM CMP
[3] = tested on: endogenous sialyltransferase activity of human polymorphonuclear leukocytes; assay: Sialyltransferase assay (flow cytometry), intact PMNs as endogenous ST source; assay type: cell-based
Excerpt: (§1) For the study of PMN ST activity, a previously described ST assay was adapted in which CMP-5-NANA served as the labeled sialyl residue donor and neuraminidase-treated RBCs as the sialyl residue acceptor (7). Based on preliminary studies, a standard reaction mixture contained a sialyl residue acceptor, either RBCs or polymorphonuclear leukocytes, CMP-5-NANA and a ST source. Purified α2,6-ST at a final concentration of 0.5 nU/ml, or polymorphonuclear leukocytes as an endogenous source of ST activity were used in a final volume of 100 μl cell incubation buffer (CIB) containing PBS plus 5 mg/ml BSA, pH 6.8. Sialyl residue acceptor SRBCs and polymorphonuclear leukocytes were desialylated with 25 mU/ml NANase/1-2×10^8/cells in 1 ml of CIB for 1 h at 37° C., washed once in CIB and used at 4×10^6 cells or at 8×10^6 cells respectively in a volume of 40 μl. When used as an endogenous source of ST activity, human polymorphonuclear leukocytes were adjusted to a stock concentration of 1×10^8 PMN/ml, lysed by freeze/thawing, centrifuged, and the protein concentration of the supernatant determined (Bio-Rad Laboratories, Hercules, Calif.). Intact human polymorphonuclear leukocytes at 8×10^6/0.1 ml assay volume were also used both as a source of ST activity as well as an acceptor of sialyl residues.
(§2) After gentle mixing, all tubes were incubated for 2 h at 37° C. in a humidified atmosphere containing 5% CO2. The cells were washed, pelleted and resuspended in CIB and analyzed fluorocytometrically on a FACScan II (Becton-Dickinson, Mountain View, Calif.). Based on forward and right angle light scatter properties, an electronic gate was placed around the RBCs or polymorphonuclear leukocytes which were excited at […] and emission measured at 530 nm. At least 10,000 events were recorded per condition. Data was analyzed with a CellQuest analysis program.
For each experiment, controls included omission of each of the components of the assay mixture, i.e., ST source, CMP-5 NANA or sialyl residue acceptor) as well as boiled, exogenous α2,6 ST. When indicated, 2-DN (0.04 mM, final concentration), an inhibitor of sialidase activity (8) was introduced to prevent the possible removal of the transferred sialyl residues. ST activity was measured after subtraction of background fluorescence, i.e., complete assay mixture minus either the exogenous ST or, for endogenous ST, in the presence and absence of the ST inhibitor, CMP (0.3 mM final concentration) and was expressed as % of maximal activity. For experiments in which it was estimated the endogenous ST activity, a standard curve was constructed using serial 2-fold dilutions of purified α2-6 ST enzyme from which tissue ST activity was interpolated, and expressed the ST activity as nU per μg protein.

α2,6 sialyltransferase = α2,6 sialyltransferase (Photobacterium damselae, UniProt O66375); assay: Sialyltransferase assay (flow cytometry), exogenous ST with PMNs as sialyl residue acceptors; assay type: cell-based, bacterial; conditions: 0.3 mM CMP
Excerpt: as §1, with “Sialyl residue acceptor SRBCs and polymorphonuclear leukocytes were desialylated with 25 mU/ml NANase/1-2×10^8/cells in 1 ml of CIB for 1 h at 37° C., washed once in CIB and used at 4×10^6 cells or at 8×10^6 cells respectively in a volume of 40 μl.” left out, “Intact human polymorphonuclear leukocytes at 8×10^6/0.1 ml assay volume were also used both as a source of ST activity as well as an acceptor of sialyl residues.” left out
as §2, with “Data was analyzed with a CellQuest analysis program.” left out

[4] = tested on: polymorphonuclear leukocytes in the peritoneal fluid; assay: In vivo IL-8 recruitment of PMNs to the peritoneal fluid; conditions: mice; CMP intravenously 30 min before and 1 hr after IL-8 (150 ng/ml) intraperitoneally; counted at 2 hrs
Protocol: Mice are pre-treated intravenously with different doses of CMP 30 minutes before giving IL-8 (150 ng/ml) intraperitoneally to recruit polymorphonuclear leukocytes. This is followed with another dose of CMP one hr after the IL-8. Polymorphonuclear leukocytes in the peritoneal fluid of these mice are counted at 2 hrs after the IL-8, i.e., one hr after the second dose of CMP. The total polymorphonuclear leukocytes in the perioneal fluid of mice treated with CMP is compared with those given an equal volume of saline. It is contemplated that those receiving the CMP will have a lower number of polymorphonuclear leukocytes in the perioneal fluid.

[5] = tested on: human polymorphonuclear leukocytes migrating across human pulmonary artery endothelial cells (HPAEC); assay: Transendothelial migration of PMNs across HPAEC monolayers in response to IL-8; assay type: cell-based; conditions: 0.3 mM CMP; TNF-treated HPAEC monolayers, IL-8 150 ng/ml, 2 h; p<0.03
Protocol: FIG. 4 depicts inhibition of transendothelial cell migration by an ST inhibitor, cytidine monophosphate (CMP). Calcein AM-labeled human polymorphonuclear leukocytes were added to human pulmonary artery endothelial cells (HPAEC) pre-treated for 4 hrs with rTNF (50 U/ml). TEM was measured in response to IL-8 (150 ng/ml) over 2 hr as previously described (6) in the absence and presence of 0.3 mM CMP. 4 chambers/variable were studied. This figure is representative of 3 independent experiments.
The ability of human polymorphonuclear leukocytes to migrate across human pulmonary artery endothelial cell (HPAEC) monolayers in response to a chemotactic stimulus (IL-8) was measured as previously described (6). Only EC monolayers retaining […] of a ^14C-bovine serum albumen tracer were studied (i.e. no loss of barrier function). After treatment of HPAECs for 4 h with 25 U/ml TNFr, calcein AM (Molecular Probes, Eugene, Oreg.)-labeled human polymorphonuclear leukocytes (5×10^5 cells/well) were introduced into the upper compartments of the assay chambers, incubated for 2 h at 37° C., after which time each lower compartment was sampled and fluorometrically assayed. A standard curve was established for each experiment from which polymorphonuclear leukocyte numbers could be interpolated from fluorescence units and PMN TEM was expressed as % migration.

α2,6 sialyltransferase, sequence (O66375 entry or part of it): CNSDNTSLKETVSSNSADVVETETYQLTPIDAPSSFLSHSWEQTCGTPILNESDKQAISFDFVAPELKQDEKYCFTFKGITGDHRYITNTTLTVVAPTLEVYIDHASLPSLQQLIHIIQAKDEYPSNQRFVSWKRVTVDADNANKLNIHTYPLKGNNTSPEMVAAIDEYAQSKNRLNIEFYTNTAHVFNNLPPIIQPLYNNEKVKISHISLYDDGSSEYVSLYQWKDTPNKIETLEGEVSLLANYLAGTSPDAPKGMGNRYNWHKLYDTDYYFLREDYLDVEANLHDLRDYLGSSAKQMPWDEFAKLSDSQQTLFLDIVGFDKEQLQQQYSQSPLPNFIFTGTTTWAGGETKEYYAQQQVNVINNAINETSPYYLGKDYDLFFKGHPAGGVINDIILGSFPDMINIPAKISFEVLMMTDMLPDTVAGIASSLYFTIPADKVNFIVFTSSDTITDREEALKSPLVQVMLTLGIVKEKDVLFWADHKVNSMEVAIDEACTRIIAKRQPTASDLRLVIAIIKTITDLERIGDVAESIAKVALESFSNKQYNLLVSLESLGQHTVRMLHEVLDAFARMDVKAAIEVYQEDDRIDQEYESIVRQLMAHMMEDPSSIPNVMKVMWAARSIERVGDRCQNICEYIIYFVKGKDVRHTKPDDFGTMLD

| MFI (ST activity) in presence of sialidase inhibitor 2-DN ([3]; FIG. 3B: intact untreated PMNs, 2-DN 0.04 mM final concentration, MFI 364 without 2-DN) | Structure (SMILES) | adherence of resting PMNs to LPS-treated HMVECs [1] | toxicity to the polymorphonuclear leukocytes [2] | inhibition of ST activity in vitro ([3]; 0.3 mM CMP, preliminary tests) | MFI (mean fluorescence intensity) with CMP ([3]; FIG. 2C: neuraminidase-pretreated PMNs + intact untreated PMNs as endogenous ST source, 0.3 mM CMP, MFI 295 without CMP) | MFI (mean fluorescence intensity) with CMP ([3]; FIG. 2D: intact untreated PMNs added to PMNs not exposed to neuraminidase, 0.3 mM CMP, MFI 266 without CMP) | mean fluorescence intensity (MFI) after CMP treatment ([3]; FIG. 3A: PMNs (8×10^6), 10 μM CMP-NANA, 0.3 mM CMP, MFI 364 without CMP) | MFI (mean fluorescence intensity) with CMP (α2,6 sialyltransferase; FIG. 2A: neuraminidase-pretreated PMNs + exogenous sialyltransferase, MFI 406 without CMP) | MFI (mean fluorescence intensity) with CMP (α2,6 sialyltransferase; FIG. 2B: PMNs unexposed to neuraminidase + exogenous sialyltransferase, MFI 310 without CMP) | number of polymorphonuclear leukocytes in the peritoneal fluid vs saline [4] | inhibition of TEM (transendothelial migration) [5] |
| --- | --- | --- | --- | --- | --- | --- | --- | --- | --- | --- | --- |
| – | Nc1ccn([C@@H]2O[C@H](COP(=O)(O)O)[C@@H](O)[C@H]2O)c(=O)n1 [CMP, cytidine 5′-monophosphate] | inhibits the initial binding; also recorded: decreased adherence | not toxic | fully inhibited | 141 | 131 | 222 | 165 | 167 | lower number | > 40% |
| 317 | CC(=O)N[C@H]1[C@H]([C@H](O)[C@H](O)CO)OC(C(=O)O)=C[C@@H]1O [2-DN, 2,3 deoxy-N-acetyl neuraminic acid] | – | – | – | – | – | – | – | – | – | – |

Source: US20060074047A1, “Method of treating inflammation with inhibitors of sialyl transferases” (priority 2004, published 2006)
